Reference: patent publication US20260207570A1, “OPTIMIZED DOSING OF LERIGLITAZONE” (MINORYX THERAPEUTICS S.L., priority 2022, published 2026)
Where two headings read alike, the source gives them in different places.

Test: Phase 1 single ascending dose (SAD) pharmacokinetics in healthy volunteers
Assay type: in vivo, human
Details: for Vd/F: read-out: Vz/F
Method: Study design: A phase 1, randomized, double blind, placebo-controlled, single-center clinical study in 33 male healthy volunteers (HV) (19-54 years, 63.2-95.7 Kg) was conducted with leriglitazone HCl and divided in two parts: a single ascending dose (SAD) with three dose levels (30, 90 and 270 mg) in fasted conditions, followed with two dose levels (90 and 270 mg) in fed conditions; a multiple ascending dose (MAD) with a double-blind, parallel-design with two dose levels (135 and 270 mg) for 8 days and a separate cohort of subjects in an open-label parallel design with two dose levels (135 and 270 mg) including cerebrospinal fluid (CSF) collection on day 8. In the fasted conditions a fasting period of at least 4 hours was required before obtaining plasma samples. The food effect (FE) was assessed by comparing fasted with fed conditions (dosing after a high-fat breakfast per FDA definition with a calculated caloric content of 918 kcal). In the MAD part (fed) the medication was taken before a normal breakfast. Leriglitazone HCl was supplied by ChemConnection and an oral suspension of leriglitazone (20% w/v kleptose, 2% ethanol in 100 mM phosphate buffer pH=7.8) at 6 mg/ml was used in the study.
Blood, Urine and CSF sampling: In the SAD, blood samples were drawn at the following time points: pre-dose and 0.25, 0.5, 0.75, 1, 1.5, 2, 2.5, 3, 4, 5, 6, 8, 10, 12, 16, 24, 36, 48, 72, 96 and 120 hours post-dose. Urine was collected at pre-dose (within 12 hours prior to dosing) and over 0-6, 6-12, 12-24, 24-36, 36-48 hours post-dose collection intervals. In the MAD, blood samples were collected on day 1 at pre-dose and 0.25, 0.5, 0.75, 1, 1.5, 2, 2.5, 3, 4, 5, 6, 8, 10, 12, and 16 hours post-dose and at pre-dose and at 4 hours post-dose on day 2 to day 7, and on day 8 at pre-dose and 0.25, 0.5, 0.75, 1, 1.5, 2, 2.5, 3, 4, 5, 6, 8, 10, 12, 16, 24, 36, 48, 72, 96 and 120 hours post-dose. CSF were taken on day −1 and on day 8, at 4 hours post-dose.
Pharmacokinetic parameter calculation: PK parameters (Cmax, Tmax, t1/2, AUC0-t, CL/F, Vz/F, AUC0-t, RAUC, RCmax) were estimated using non-compartmental analysis (NCA) (Phoenix WinNonlin® Version 6.3).
Statistical analysis: Descriptive statistics for all relevant PK parameters: n, mean, minimum, median, maximum, geometric mean, and coefficient of variation (CV %); analysis of variance on Cmax and AUC to determine dose proportionality and food effect (FE).

## CC(O)c1ccc(CCOc2ccc(CC3SC(=O)NC3=O)cc2)nc1 (centres unmarked) [Leriglitazone, 5-[[4-[2-[5-(1-hydroxyethyl)pyridin-2-yl]ethoxy]phenyl]methyl]-1,3-thiazolidine-2,4-dione]
SAD 270 mg Fed, estimated
  Ka: 0.49 (CV: 9%) 1/h
SAD 270 mg fasted, n = 5, geometric mean (CV %)
  CL/F: 0.731 (16.2) L/h
SAD 270 mg fed, n = 5, geometric mean (CV %)
  CL/F: 0.733 (17.8) L/h
SAD 30, 90 and 270 mg
  dose proportionality of AUC: AUC increased proportionally with the dose
SAD fed vs fasted, food lowered Cmax and prolonged Tmax
  food effect on overall exposure: overall exposure was not affected
From individual phase 1 plasma PK data
  leriglitazone converted to M3: up to 51%
male, human, plasma, oral, 30 mg, SAD 30 mg Fasted, NCA estimate, per kg body weight, read-out: Vss
  Vd: 0.29 L/kg
male, human, plasma, oral, 30 mg, SAD 30 mg Fasted, NCA estimate, read-out: Vss
  Vd: 23.1 L
male, human, plasma, oral, 30 mg, SAD 30 mg fasted, n = 6, Median, read-out: Tmax
  Tmax: 0.63 h
male, human, plasma, oral, 30 mg, SAD 30 mg fasted, n = 6, geometric mean (CV %)
  Vd/F: 23.2 L
male, human, plasma, oral, 30 mg, SAD 30 mg fasted, n = 6, geometric mean, read-out: AUC
  AUC: 44.2 µg·h/mL
male, human, plasma, oral, 30 mg, SAD 30 mg fasted, n = 6, plasma total, geometric mean (CV %), read-out: Cmax
  Cmax: 1700 ng/mL
male, human, plasma, oral, 30 mg, single dose 30 mg Fasted, read-out: AUC, Observed
  AUC: 44.2 µg·h/mL
male, human, plasma, oral, 30 mg, single dose 30 mg Fasted, read-out: Cmax, Observed
  Cmax: 1700 ng/mL
male, human, plasma, oral, 30 mg, single dose 30 mg Fasted, read-out: Tmax, Observed
  Tmax: 0.63 h
male, human, plasma, oral, 90 mg, SAD 90 mg Fasted, NCA estimate, per kg body weight, read-out: Vss
  Vd: 0.31 L/kg
male, human, plasma, oral, 90 mg, SAD 90 mg Fasted, NCA estimate, read-out: Vss
  Vd: 25.2 L
male, human, plasma, oral, 90 mg, SAD 90 mg Fed, NCA estimate, per kg body weight, read-out: Vss
  Vd: 0.35 L/kg
male, human, plasma, oral, 90 mg, SAD 90 mg Fed, NCA estimate, read-out: Vss
  Vd: 28.1 L
male, human, plasma, oral, 90 mg, SAD 90 mg fasted, n = 6, Median, read-out: Tmax
  Tmax: 0.88 h
male, human, plasma, oral, 90 mg, SAD 90 mg fasted, n = 6, geometric mean
  AUC(0-t): 117 µg·h/mL
male, human, plasma, oral, 90 mg, SAD 90 mg fasted, n = 6, geometric mean (CV %)
  Vd/F: 26.1 L
male, human, plasma, oral, 90 mg, SAD 90 mg fasted, n = 6, geometric mean, read-out: AUC
  AUC: 121 µg·h/mL
male, human, plasma, oral, 90 mg, SAD 90 mg fasted, n = 6, plasma total, geometric mean (CV %), read-out: Cmax
  Cmax: 4430 ng/mL
male, human, plasma, oral, 90 mg, SAD 90 mg fed, n = 3, Median, read-out: Tmax
  Tmax: 3 h
male, human, plasma, oral, 90 mg, SAD 90 mg fed, n = 3, geometric mean
  AUC(0-t): 116 µg·h/mL
male, human, plasma, oral, 90 mg, SAD 90 mg fed, n = 3, geometric mean (CV %)
  Vd/F: 27.8 L
male, human, plasma, oral, 90 mg, SAD 90 mg fed, n = 3, geometric mean, read-out: AUC
  AUC: 121 µg·h/mL
male, human, plasma, oral, 90 mg, SAD 90 mg fed, n = 3, plasma total, geometric mean (CV %), read-out: Cmax
  Cmax: 3170 ng/mL
male, human, plasma, oral, 90 mg, single dose 90 mg Fasted, read-out: AUC, Observed
  AUC: 121 µg·h/mL
male, human, plasma, oral, 90 mg, single dose 90 mg Fasted, read-out: Cmax, Observed
  Cmax: 4430 ng/mL
male, human, plasma, oral, 90 mg, single dose 90 mg Fasted, read-out: Tmax, Observed
  Tmax: 0.88 h
male, human, plasma, oral, 90 mg, single dose 90 mg Fed, read-out: AUC, Observed
  AUC: 121 µg·h/mL
male, human, plasma, oral, 90 mg, single dose 90 mg Fed, read-out: Cmax, Observed
  Cmax: 3170 ng/mL
male, human, plasma, oral, 90 mg, single dose 90 mg Fed, read-out: Tmax, Observed
  Tmax: 3 h
male, human, plasma, oral, 270 mg, SAD 270 mg Fasted, NCA estimate, per kg body weight, read-out: Vss
  Vd: 0.27 L/kg
male, human, plasma, oral, 270 mg, SAD 270 mg Fasted, NCA estimate, read-out: Vss
  Vd: 22.7 L
male, human, plasma, oral, 270 mg, SAD 270 mg Fed, NCA estimate, per kg body weight, read-out: Vss
  Vd: 0.3 L/kg
male, human, plasma, oral, 270 mg, SAD 270 mg Fed, NCA estimate, read-out: Vss
  Vd: 24.4 L
male, human, plasma, oral, 270 mg, SAD 270 mg fasted, n = 5, Median, read-out: Tmax
  Tmax: 1.5 h
male, human, plasma, oral, 270 mg, SAD 270 mg fasted, n = 5, geometric mean (CV %)
  Vd/F: 24 L
male, human, plasma, oral, 270 mg, SAD 270 mg fed, n = 5, Median, read-out: Tmax
  Tmax: 4 h
male, human, plasma, oral, 270 mg, SAD 270 mg fed, n = 5, geometric mean
  AUC(0-t): 357 µg·h/mL
male, human, plasma, oral, 270 mg, SAD 270 mg fed, n = 5, geometric mean (CV %)
  Vd/F: 24.9 L
male, human, plasma, oral, 270 mg, SAD 270 mg fed, n = 5, geometric mean, read-out: AUC
  AUC: 368 µg·h/mL
male, human, plasma, oral, 270 mg, SAD 270 mg fed, n = 5, plasma total, geometric mean (CV %), read-out: Cmax
  Cmax: 11500 ng/mL
male, human, plasma, oral, 270 mg, SAD Fasted doses 30, 90, 270 mg, NCA estimate, read-out: Vss, Mean
  Vd: 0.29 L/kg
male, human, plasma, oral, 270 mg, SAD Fed doses 90, 270 mg, NCA estimate, read-out: Vss, Mean
  Vd: 0.32 L/kg
male, human, plasma, oral, 270 mg, SAD fasting conditions, 30, 90 and 270 mg, read-out: Tmax, range
  Tmax: 0.25 to 2.5 h
male, human, plasma, oral, 270 mg, SAD fed conditions, 90 and 270 mg, read-out: Tmax
  Tmax: 3 to 6 h
male, human, plasma, oral, 270 mg, single dose 270 mg Fasted, read-out: AUC, Observed
  AUC: 369 µg·h/mL
male, human, plasma, oral, 270 mg, single dose 270 mg Fasted, read-out: Cmax, Observed
  Cmax: 13400 ng/mL
male, human, plasma, oral, 270 mg, single dose 270 mg Fasted, read-out: Tmax, Observed
  Tmax: 1.5 h
male, human, plasma, oral, 270 mg, single dose 270 mg Fed, read-out: AUC, Observed
  AUC: 368 µg·h/mL
male, human, plasma, oral, 270 mg, single dose 270 mg Fed, read-out: Cmax, Observed
  Cmax: 11500 ng/mL
male, human, plasma, oral, 270 mg, single dose 270 mg Fed, read-out: Tmax, Observed
  Tmax: 4 h
male, human, plasma, oral, PBPK model input, estimated from phase 1 SAD data, read-out: Vss
  Vd: 0.29 L/kg
male, human, plasma, oral, SAD, read-out: Half-lives
  half-life: 23 to 24 h
male, human, urine, oral, PBPK model input
  CL renal: 0.55 mL/min
